This passage reports IC50 results from patent US20130164259A1, “1,4-S[…] DERIVATIVES AND METHODS OF USE THEREOF” (priority 2009, published 2013).

In this experiment the target is T1, HCV NS5B polymerase (NS5BΔCT21) (Hepatitis C virus genotype 1b, UniProt Q9WMX2).
T1 construct: A soluble C-terminal 21-amino acid truncated NS5B enzyme form; polyhistidine (C); made in house; host or cells: Escherichia coli
Put plainly: HCV NS5B Polymerase Inhibition Assay. It is filed as biochemical, HCV-Con 1 isolate. From the text: A chemically synthesized 75-mer version, designated DCoH75, whose sequence matches the 3′-end of D-RNA, and DCoH75ddC, where the 3′-terminal cytidine of DCoH75 is replaced by dideoxycytidine, were used for assaying the NS5B enzyme activity as described in Ferrari et al., 12th International Symposium on HCV and Related Viruses, P-306 (2005). The sequence of the template RNA was: 5′-UGUGCCGGUCUUUCUGAACGGGAUAUAAACCUGGCCAGCUUCAUCGAACAAGUUGCCGUGUCUAUGACAUAGAUC-3′ (SEQ ID NO: 1). A soluble C-terminal 21-amino acid truncated NS5B enzyme form (NS5BΔCT21, from HCV-Con 1 isolate, genotype 1b, Genbank accession number AJ238799) was produced and purified from Escherichia coli as C-terminal polyhistidine-tagged fusion protein as described in Ferrari et al., J. Virol. 73:1649-1654 (1999). A typical assay contained 20 mM Hepes pH 7.3, 10 mM MgCl2, 60 mM NaCl, 100 μg/ml BSA, 20 units/ml RNasin, 7.5 mM DTT, 0.1 μM ATP/GTP/UTP, 0.026 μM CTP, 0.25 mM GAU, 0.03 μM RNA template, 20 μCi/ml [^33P]-CTP, 2% DMSO, and 30 or 150 nM NS5B enzyme. Reactions were incubated at 22° C. for 2 hours, then stopped by adding 150 mM EDTA, washed in DE81 filter plate in 0.5M di-basic sodium phosphate buffer, pH 7.0, and counted using Packard TopCount after the addition of scintillation cocktail. Polynucleotide synthesis was monitored by the incorporation of radiolabeled CTP. The effect of the Compounds of Formula (I) on the polymerase activity was evaluated by adding various concentrations of a Compound of Formula (I), typically in 10 serial 2-fold dilutions, to the assay mixture. The starting concentrations ranged from 200 μM to 1 μM. An IC50 value for the inhibitor, defined as the compound concentration that provides 50% inhibition of polymerase activity, was determined by fitting the cpm data to the Hill equation Y=100/(1+10̂((LogIC50−X)*HillSlope)), where X is the logarithm of compound concentration, and Y is the % inhibition. Ferrari et al., 12th International Symposium on HCV and Related Viruses, P-306 (2005) described in detail this assay procedure. It should be noted that such an assay as described is exemplary and not intended to limit the scope of the invention. The skilled practitioner can appreciate that modifications including but not limited to RNA template, primer, nucleotides, NS5B polymerase form, buffer composition, can be made to develop similar assays that yield the same result for the efficacy of the compounds and compositions described in the invention.
NS5B polymerase inhibition data was calculated for the compounds of the present invention using this method and is set forth in the table below.

Broadly, the IC50 is the point on the concentration scale where inhibition reaches its midpoint. A low value points to inhibition by little substance. `CC(C)c1ccc(NC(=O)c2cccnc2)c(N2CCN(C(=O)Nc3ccccc3)CC2)c1` [Compound 52]: the IC50 was more than 100 µM.
In turn, `Cc1c(F)ccc(F)c1C(=O)Nc1ccc(C(C)C)cc1N1CCN(c2cnccn2)CC1` [Compound 15] yielded a half-maximal inhibitory concentration (IC50) of 54 µM.
The figure for `Cc1ccnc(N2CCN(c3cc(C(C)C)ccc3NC(=O)c3cccnc3)CC2)n1` [Compound 44] is 1.5 µM; for `CC(C)c1ccc(NC(=O)c2cncnc2)c(N2CCN(c3cnccn3)CC2)c1` [Compound 34] it is more than 20 µM; for `CC(C)c1ccc(NC(=O)c2cccnc2F)c(N2CCN(c3cnccn3)CC2)c1` [Compound 6] it is 2.2 µM.
As to `COc1ncccc1C(=O)Nc1ccc(C(C)C)cc1N1CCN(c2cnccn2)CC1` [Compound 11], the IC50 is more than 20 µM.
Next, `Cc1cnc(C(=O)Nc2ccc(C(C)C)cc2N2CCN(c3cnccn3)CC2)cn1` [Compound 36]: more than 20 µM.
Turning to `Cc1cncc(C(=O)Nc2ccc(C(C)C)cc2N2CCN(c3cnccn3)CC2)c1` [Compound 18], the half-maximal inhibitory concentration (IC50) was determined as 2.3 µM.
